Where “and” joins values, the source holds several entries; their conditions need not be identical. Identical values can stand only once.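 Test compounds were applied to cells in 96-well plates for 48 hours at 5 doses. Abbreviation: GI50, concentration required for 50% inhibition of growth. Definition used: TGI = concentration required for complete inhibition of growth.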 *1 amine or outer side, *2 acyl side, *3 side chain or, on linkers, in order; H or OH if unused. Where a SMILES comes first, the peptide text is derived from it. CO = O=C([*:1])[*:2]
Experiments:
Assay in all cases: NCI anticancer screen, dose series, 48 h
OVCAR-3 ovarian = tested on: OVCAR-3 ovarian
NCI-H460 lung = tested on: NCI-H460 lung
SF-295 CNS = tested on: SF-295 CNS
A498 renal = tested on: A498 renal
SF-268 CNS = tested on: SF-268 CNS
SK-MEL-28 melanoma = tested on: SK-MEL-28 melanoma
LOX IMVI melanoma = tested on: LOX IMVI melanoma
HS 578T breast = tested on: HS 578T breast
NCI-H226 lung = tested on: NCI-H226 lung
SNB-75 CNS = tested on: SNB-75 CNS

Structure (SMILES)	GI50 (OVCAR-3 ovarian)	TGI (OVCAR-3 ovarian)	GI50 (NCI-H460 lung)	TGI (NCI-H460 lung)	GI50 (SF-295 CNS)	TGI (SF-295 CNS)	GI50 (A498 renal)	TGI (A498 renal)	GI50 (SF-268 CNS)	TGI (SF-268 CNS)	GI50 (SK-MEL-28 melanoma)	TGI (SK-MEL-28 melanoma)	GI50 (LOX IMVI melanoma)	TGI (LOX IMVI melanoma)	GI50 (HS 578T breast)	TGI (HS 578T breast)	GI50 (NCI-H226 lung)	TGI (NCI-H226 lung)	GI50 (SNB-75 CNS)	TGI (SNB-75 CNS)
Cc1cc(Nc2ncc(Cl)c(Nc3ccccc3S(=O)(=O)C(C)C)n2)c(OC(C)C)cc1C1CCNCC1	1.61 µM and 1.37 µM	3.01 µM and 2.66 µM	1.2 µM	2.83 µM	1.43 µM and 1.63 µM	2.81 µM and 3.16 µM	1.88 µM	6.83 µM	1.61 µM	3.38 µM	1.22 µM	2.47 µM	1.36 µM	2.71 µM	1.66 µM and 1.94 µM and 1.61 µM	5.25 µM and 5.34 µM and 4.48 µM	1.29 µM and 1.56 µM and 1.7 µM	3.1 µM and 3.95 µM and 4.25 µM	1.2 µM	2.44 µM
CCCCCCCCO/N=C\c1c2c(O)c3c(O)c(C)c4c(c3c1O)C(=O)C(C)(O/C=C\C(OC)C(C)C(OC(C)=O)C(C)C(O)C(C)C(O)C(C)/C=C\C=C(\C)C(=O)N2)O4 (stereo unspecified)	0.96 µM	2.18 µM	0.998 µM	2.14 µM	0.953 µM	2.56 µM	1.81 µM	7.12 µM	2.02 µM	8.18 µM	1.37 µM	4.17 µM	1.53 µM	5.6 µM	1.07 µM	3.1 µM	2.05 µM	9.71 µM	1.66 µM	6.97 µM
Nc1nc(F)nc2c1ncn2C1OC(COP(=O)(O)O)C(O)C1O (stereo unspecified)		546 µM		616 µM		917 µM		694 µM		874 µM		755 µM		334 µM		379 µM		599 µM		713 µM
O=C(Nc1nc(-c2ccc(Cl)cc2)cs1)c1ccc(O)c(O)c1	5.03 µM	18.2 µM	3.26 µM	12.2 µM	11.5 µM	26.2 µM	3.37 µM	15.5 µM	3.54 µM	13.9 µM	3.63 µM	20 µM	4.26 µM	15.7 µM	9.45 µM	53.9 µM	4.65 µM	19.7 µM	3.25 µM	17.4 µM
CC1=C([Se]CC(OC(=O)[C@@H](CSSC(C)(C)C)NC(=O)C(C)(C)C)C(=O)NCCCCCC(=O)OCc2ccccc2)C(=O)c2ccccc2C1=O (stereo partly specified)	1.87 µM	3.38 µM	0.637 µM	2.52 µM	0.317 µM	1.95 µM	1.63 µM	4.77 µM	1.91 µM	3.51 µM	1.92 µM	3.53 µM	2.59 µM	7.62 µM	2.18 µM	5.56 µM	2.36 µM	4.63 µM	1.37 µM	2.66 µM
OCC1OC(O)C(N=Cc2ccc3c(c2)OCO3)C(O)C1O (stereo unspecified)		> 100 µM		> 100 µM		> 100 µM		> 100 µM		> 100 µM		> 100 µM		> 100 µM		> 100 µM		> 100 µM		> 100 µM
N#Cc1c(SCc2ccccc2)nc2[nH]c(=S)[nH]c(=S)c2c1-c1ccco1	25.8 µM	73.5 µM	32.3 µM	> 100 µM	43.5 µM	> 100 µM	55.3 µM	> 100 µM	32.4 µM	> 100 µM	> 100 µM	> 100 µM	> 100 µM	> 100 µM	70.6 µM	> 100 µM	15.1 µM	52.8 µM	> 100 µM	> 100 µM
CCOC(=O)c1ccc2[nH]c(Cc3[nH]c4ccc(C(=O)OCC)cc4c3C)c(C)c2c1	3.06 µM	17.6 µM	0.167 µM	6.44 µM	1.42 µM	13.5 µM	5.45 µM	23.1 µM	1.41 µM	15.4 µM	5.26 µM	22.8 µM	0.384 µM	5.72 µM	3.29 µM	23.1 µM	4.7 µM	23.2 µM	4.2 µM	23.4 µM
O=C(c1cccs1)c1c(C(F)(F)F)n([O-])c2cc(C(F)(F)F)ccc2[n+]1=O	0.333 µM	0.704 µM	0.198 µM	0.512 µM	0.322 µM	0.889 µM	0.96 µM	2.6 µM	0.163 µM	0.334 µM	0.694 µM	2.09 µM	0.0714 µM	0.17 µM	0.189 µM	0.546 µM	0.647 µM	1.71 µM	0.491 µM	1.54 µM
COc1ccc(/C(Cl)=C(\C=O)c2cc(OC)c(OC)c(OC)c2)cc1OC		> 100 µM		> 100 µM		> 100 µM		> 90.3 µM		> 100 µM		> 100 µM		> 100 µM		> 100 µM		70.6 µM		> 28.1 µM
Nc1c(C(=O)Nc2cccc3ccccc23)sc2nc3c(cc12)CCCCC3	0.542 µM	> 50 µM	1.33 µM	> 50 µM	0.421 µM	> 50 µM	0.646 µM	25.8 µM	2.82 µM	> 50 µM	4.32 µM	> 50 µM	0.909 µM	> 50 µM	0.35 µM	> 50 µM	7.58 µM	> 50 µM	0.161 µM	> 50 µM
Nc1ccn(C2OC(COP(=O)(O)O)C(O)C2O)c(=O)n1 (stereo unspecified)		> 100 µM		> 27.8 µM		> 100 µM		> 100 µM		> 100 µM		> 100 µM		> 100 µM		> 100 µM		> 100 µM		> 100 µM
O=C(CCc1ccc(O)c(O)c1)c1ccc(O)c(O)c1O				36.2 µM		36.7 µM		> 100 µM		60.6 µM		> 100 µM		> 100 µM		> 100 µM		36.2 µM		> 100 µM
CC(=O)O[C@H]1C(=O)[C@@]2(C)[C@H]([C@H](OC(=O)c3ccccc3)[C@]3(O)C[C@H](OC(=O)[C@H](OC(=O)CCC(=O)OC4CCC(S/N=C(N)/N=C(\N)N(C)C)CC4)[C@@H](NC(=O)c4ccccc4)c4ccccc4)C(C)=C1C3(C)C)[C@]1(OC(C)=O)CO[C@@H]1C[C@@H]2O (stereo partly specified)	0.0112 µM	> 50 µM	0.0069 µM	> 27.7 µM	0.0116 µM	0.0818 µM	0.0148 µM	> 50 µM	0.0212 µM	> 50 µM	8.57 µM	> 50 µM	0.00748 µM	> 50 µM	0.01 µM		23.4 µM	> 50 µM	< 0.005 µM	0.0174 µM
N#Cc1c(N)nc(N2CCOCC2)c(C#N)c1-c1cccc(O)c1	61.9 µM	> 100 µM	93.2 µM	> 100 µM	> 100 µM	> 100 µM	14.8 µM	58.3 µM	> 100 µM	> 100 µM	> 100 µM	> 100 µM	> 100 µM	> 100 µM	40.7 µM	> 100 µM	> 100 µM	> 100 µM	17.2 µM	70.6 µM
Cc1cc(S(=O)(=O)/N=C(\N)n2nc(C)c(C)c2C)c(SCc2ccccc2)cc1Cl	46.4 µM	> 100 µM	6.57 µM	> 100 µM	7.99 µM	> 100 µM	> 100 µM	> 100 µM	> 100 µM	> 100 µM	> 100 µM	> 100 µM	> 100 µM	> 100 µM	> 100 µM	> 100 µM	> 100 µM	> 100 µM	> 100 µM	> 100 µM
CC(C)C(NC(=O)C(CCCN=C(N)N)NC(=O)NC(Cc1ccccc1)C(=O)O)C(=O)NC(C=O)CCCN=C(N)N (stereo not drawn) ({Phe-CO}-Arg-Val-Arg-aldehyde; configuration not given here)	> 5 µM	> 5 µM	> 5 µM	> 5 µM	> 5 µM	> 5 µM	> 5 µM	> 5 µM	> 5 µM	> 5 µM	> 5 µM	> 5 µM	> 5 µM	> 5 µM	> 5 µM	> 5 µM	> 5 µM	> 5 µM	> 5 µM	> 5 µM
CC1=Cc2cc3[n-]c(cc4nc(cc5[n-]c(cc1n2)c(C)c5CCC(=O)O)C(CCC(=O)O)=C4C)cc3C.[Cu+2]	> 1 µM and 26.5 µM	> 1 µM and 92.3 µM	> 100 µM	> 100 µM	51.3 µM	> 96.9 µM	> 1 µM and 16.2 µM	> 1 µM and 36.5 µM	10.8 µM and > 1 µM	36.1 µM and > 1 µM	> 1 µM and 4.4 µM	> 1 µM and 12.9 µM	28.1 µM	> 65.3 µM	38.7 µM	> 100 µM	> 1 µM and 62 µM	> 87.2 µM	> 1 µM and 8.39 µM	> 1 µM and 18.7 µM
O=C(Nc1cccc(-c2nc3ccccc3[nH]2)c1)c1cccc(NC(=O)c2ccco2)c1	1.97 µM	3.39 µM	1.67 µM	3.03 µM	1.92 µM	4.41 µM	4.33 µM	18.3 µM	1.99 µM	3.78 µM	1.75 µM	3.31 µM	1.93 µM	3.88 µM	2.2 µM	5.97 µM	2.72 µM	15.9 µM	1.55 µM	2.91 µM
CC1(C)CC2=NOS3=C2C(=NO3)C1c1ccccn1 (stereo unspecified)		> 100 µM		> 100 µM		> 100 µM		> 100 µM		> 100 µM		> 100 µM		> 100 µM		> 100 µM				> 100 µM
COc1ccc(C(=O)c2ccc(OC)cc2OC)cc1	2.2 µM	5.95 µM	3.74 µM	89.5 µM	2.33 µM	9.4 µM	5.87 µM	> 100 µM	7.57 µM	> 100 µM	4.05 µM	> 100 µM	4.47 µM	> 100 µM	3.5 µM	31.4 µM			1.76 µM	5.57 µM
COc1cc2c3c(n(CCCn4ccnc4)c(=O)c2cc1OC)-c1ccccc1C3=O	< 0.0471 µM	0.484 µM	< 0.01 µM	4.77 µM	< 0.01 µM	0.218 µM	0.0449 µM	0.292 µM	< 0.0423 µM	> 100 µM	1.59 µM	> 100 µM	< 0.0124 µM	0.0385 µM	11.6 µM	> 100 µM	0.05 µM	0.983 µM	0.0681 µM	4.33 µM
O=C1CN2CCC1C/C2=C\c1ccnc2c(Cl)cccc12 (stereo unspecified)	> 100 µM	> 100 µM	72.8 µM	> 100 µM	46.5 µM	> 100 µM	69.8 µM	> 100 µM	> 100 µM	> 100 µM	> 100 µM	> 100 µM	52.2 µM	> 100 µM	> 100 µM	> 100 µM	90.5 µM	> 100 µM	> 100 µM	> 100 µM
O=[N+]([O-])c1ccccc1/C=C/C=C1c2ccccc2-c2ccccc21	> 100 µM	> 100 µM	> 100 µM	> 100 µM	> 100 µM	> 100 µM	> 100 µM	> 100 µM	> 100 µM	> 100 µM	> 100 µM	> 100 µM	> 100 µM	> 100 µM	> 100 µM	> 100 µM	> 100 µM	> 100 µM	> 100 µM	> 100 µM
Cc1cccc(Oc2ccc(Nc3ncnc4ccc(NC(=O)CN5CCN(C)CC5)cc34)cc2Cl)c1	1.42 µM	2.99 µM	1.75 µM	3.28 µM	1.83 µM	3.39 µM	1.06 µM	2.28 µM	1.46 µM	3.16 µM	1.74 µM	3.2 µM	1.7 µM	3.18 µM	1.77 µM	4.28 µM			1.44 µM	2.81 µM
C/C(=C\c1ccn(-c2ccc(N)cc2C(F)(F)F)n1)[C@@H]1C[C@@H]2O[C@]2(C)CCC[C@H](C)[C@H](O)[C@@H](C)C(=O)C(C)(C)[C@@H](O)CC(=O)O1	0.344 µM	2.66 µM	0.302 µM	> 11.1 µM	0.314 µM	2.19 µM	0.303 µM	2.27 µM	0.481 µM	> 11.1 µM	1.06 µM	> 11.1 µM	0.476 µM	> 11.1 µM	0.399 µM	4.3 µM	6.35 µM	> 11.1 µM		

From PubChem BioAssay (NCI)
